Measured values taken from publication PMC2360244 (British Journal of Cancer, 2007).
Like-named read-outs stand apart in the source and are kept apart here.

How the values were obtained:
[1] = tested on: tubulin acetylation and Hsp70 in A2780 ovarian carcinoma cells; test: Western blot of acetylated tubulin and Hsp70 in A2780 cells (HDAC6 readout); format: cell-based, human; conditions: for concentration at which tubulin acetylation (and Hsp70 induction) is evident: western blot
Experimental: (§1) Human A2780 ovarian carcinoma cells were incubated with the indicated concentrations of HDAC inhibitors. Total cell lysates were prepared and analysed by SDS–PAGE. […] To control for equal loading, blots were stripped and re-probed with mouse monoclonal antiactin IgM (Ab-1, Oncogene Research products, Merck, Darmstadt, Germany). […] Protein–antibody complexes were then visualised by chemiluminescence (Pierce Chemical Co., Perbioscience, Erembodegem, Belgium) or fluorescence (Odyssey) according to manufacturer's instructions.
(§2) Total cell lysates were prepared and analysed by SDS–PAGE. Levels of acetylated H3 and tubulin, and of total levels of H3 and tubulin and of p21^waf1, cip1 and Hsp70 and c-raf protein, were detected using rabbit polyclonal and mouse monoclonal antibodies, followed by ECL detection as indicated in the Methods section. To control for equal loading, blots were stripped and re-probed with antibodies against actin and the nuclear protein Lamin B1. A representative experiment out of three is shown.

HDAC1 = HDAC1 (Rattus norvegicus, UniProt Q4QQW4); format: biochemical
Experimental: After centrifugation, the cleared extract was used for immunoprecipitation of HDAC1. […] (Amersham Pharmacia Biotech, Piscataway, NJ, USA) in a total volume of 50 μl enzyme assay buffer (25 mM HEPES (pH 7.4), 1 M sucrose, 0.1 mg ml^−1 BSA and 0.01% (v v^−1) Triton X-100). Incubation was performed for 45 min at 37°C (immunoprecipitates) or 30 min at room temperature (HeLa nuclear extract). Before addition of substrate, HDAC inhibitors were added at increasing concentrations and preincubated for 10 min at room temperature. After incubation, the reaction was quenched with 35 μl stop buffer (1 M HCl and 0.4 M acetic acid). Released [^3H]acetic acid was extracted with 800 μl ethyl acetate and quantified by scintillation counting. Equal amounts of HDAC1 were immunoprecipitated as indicated by western blot analysis. Histone deacetylase 1 activity results are presented as mean±s.d. of three independent experiments on a single lysate. […] Finally, we measured the activities of different HDAC isotypes present in partially purified extract from rat liver using the fluorescent HDAC substrates MAL (unselective), B61 (selective for HDAC1, and to some extent also converted by HDAC3) and B12 (selective for HDAC6).

[2] = tested on: A2780 ovarian carcinoma cells; test: A2780 tumour cell proliferation, MTT colorimetric assay; format: cell-based, human; conditions: 4 days, mean±s.d.
Experimental: Control cells were treated with the combined respective vehicle.

[3] = tested on: H3 acetylation and p21waf1,cip1 in A2780 ovarian carcinoma cells; test: Western blot of acetylated H3 and p21waf1,cip1 in A2780 cells (class I HDAC readout); format: cell-based, human; conditions: 24 h, western blot
Experimental: as §1, §2

HDAC6 = target: T1, HDAC6 (Rattus norvegicus, UniProt A0A8I6GM68); test: biochemical; format: biochemical
T1 construct: partially purified extract from rat liver; from tissue; host or cells: rat liver, partially purified extract
Experimental: (§3) After centrifugation, the cleared extract was used for immunoprecipitation of HDAC1. […] Incubation was performed for 45 min at 37°C (immunoprecipitates) or 30 min at room temperature (HeLa nuclear extract). Before addition of substrate, HDAC inhibitors were added at increasing concentrations and preincubated for 10 min at room temperature. After incubation, the reaction was quenched with 35 μl stop buffer (1 M HCl and 0.4 M acetic acid). Released [^3H]acetic acid was extracted with 800 μl ethyl acetate and quantified by scintillation counting. Equal amounts of HDAC1 were immunoprecipitated as indicated by western blot analysis. Histone deacetylase 1 activity results are presented as mean±s.d. of three independent experiments on a single lysate. […] Finally, we measured the activities of different HDAC isotypes present in partially purified extract from rat liver using the fluorescent HDAC substrates MAL (unselective), B61 (selective for HDAC1, and to some extent also converted by HDAC3) and B12 (selective for HDAC6).

[4] = tested on: HDAC isotypes in partially purified extract from rat liver (MAL, unselective); conditions: read-out: Liver extract MAL unselective IC50, substrate MAL
Experimental: as §3

T1 sequence (A0A8I6GM68 whole entry): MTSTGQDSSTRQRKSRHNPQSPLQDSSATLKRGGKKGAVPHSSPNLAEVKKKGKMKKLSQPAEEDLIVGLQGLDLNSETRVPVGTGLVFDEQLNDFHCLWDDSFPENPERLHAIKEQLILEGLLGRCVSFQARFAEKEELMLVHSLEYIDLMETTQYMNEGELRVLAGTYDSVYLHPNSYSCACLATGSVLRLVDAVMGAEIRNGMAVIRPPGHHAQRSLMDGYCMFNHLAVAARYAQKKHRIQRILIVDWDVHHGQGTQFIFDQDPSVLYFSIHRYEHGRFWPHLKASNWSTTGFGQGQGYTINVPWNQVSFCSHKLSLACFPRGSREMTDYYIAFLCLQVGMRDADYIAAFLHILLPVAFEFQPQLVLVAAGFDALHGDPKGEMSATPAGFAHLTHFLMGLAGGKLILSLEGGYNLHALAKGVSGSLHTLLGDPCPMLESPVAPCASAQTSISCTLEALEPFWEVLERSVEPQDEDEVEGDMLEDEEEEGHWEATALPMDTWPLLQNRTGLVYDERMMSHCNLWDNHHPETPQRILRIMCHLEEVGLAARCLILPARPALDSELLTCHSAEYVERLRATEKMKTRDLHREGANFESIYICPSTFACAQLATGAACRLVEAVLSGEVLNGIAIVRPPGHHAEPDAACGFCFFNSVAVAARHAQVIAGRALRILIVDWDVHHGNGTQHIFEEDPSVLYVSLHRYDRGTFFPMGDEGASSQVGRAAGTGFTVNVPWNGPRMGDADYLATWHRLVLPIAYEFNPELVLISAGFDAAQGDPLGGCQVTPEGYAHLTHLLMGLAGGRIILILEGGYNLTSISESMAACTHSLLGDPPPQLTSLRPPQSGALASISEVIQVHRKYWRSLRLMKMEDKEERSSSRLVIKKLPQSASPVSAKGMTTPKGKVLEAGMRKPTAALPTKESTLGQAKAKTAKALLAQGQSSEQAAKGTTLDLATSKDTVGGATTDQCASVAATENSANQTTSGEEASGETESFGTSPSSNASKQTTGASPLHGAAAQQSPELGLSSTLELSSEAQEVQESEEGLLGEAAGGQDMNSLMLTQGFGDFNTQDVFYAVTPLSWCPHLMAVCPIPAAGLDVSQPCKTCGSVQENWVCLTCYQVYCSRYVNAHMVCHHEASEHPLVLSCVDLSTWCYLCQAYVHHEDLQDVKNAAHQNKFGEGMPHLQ
Sequence of HDAC1 (Q4QQW4 whole entry): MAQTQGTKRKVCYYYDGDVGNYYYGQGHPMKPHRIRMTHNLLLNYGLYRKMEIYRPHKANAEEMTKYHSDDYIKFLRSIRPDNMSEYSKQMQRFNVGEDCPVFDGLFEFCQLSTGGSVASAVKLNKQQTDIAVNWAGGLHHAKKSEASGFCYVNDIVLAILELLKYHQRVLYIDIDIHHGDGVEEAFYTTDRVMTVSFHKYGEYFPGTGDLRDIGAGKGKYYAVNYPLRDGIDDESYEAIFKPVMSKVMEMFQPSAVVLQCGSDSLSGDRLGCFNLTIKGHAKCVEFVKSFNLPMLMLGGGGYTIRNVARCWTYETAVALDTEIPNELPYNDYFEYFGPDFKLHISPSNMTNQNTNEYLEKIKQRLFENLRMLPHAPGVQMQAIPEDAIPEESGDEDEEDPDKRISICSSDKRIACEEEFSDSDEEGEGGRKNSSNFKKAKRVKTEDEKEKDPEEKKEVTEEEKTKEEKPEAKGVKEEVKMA

SMILES	IC50 [2] [nM]	concentration at which H3 acetylation is induced [3] [nM]	concentration at which tubulin acetylation (and Hsp70 induction) is evident ([1]; 24 h) [nM]	IC50 [4] [nM]	further results
O=C(CCCCCCC(=O)Nc1ccccc1)NO [Vorinostat, suberoylanilide hydroxamic acid]					cellular potency for HDAC6 vs HDAC1 (higher for HDAC6) ([1]; tubulin acetylation vs H3 acetylation): 10 fold; IC50 (HDAC1; read-out: Liver extract B61 HDAC1 IC50): 1030 ± 201 nM
Nc1ccccc1NC(=O)c1ccc(CNC(=O)OCc2cccnc2)cc1 [MS-275]	376 ± 169	3000			effect on tubulin acetylation or Hsp70 levels ([1]; 3 μM, 24 h): did not affect tubulin acetylation or Hsp70 levels; Liver extract B61 HDAC1 IC50 (HDAC1; rat liver extract, substrate B61): Inactive; Liver extract B12 HDAC6 IC50 (HDAC6; rat liver extract, substrate B12): Inactive
Cc1[nH]c2ccccc2c1CCNCc1ccc(/C=C/C(=O)NO)cc1 [Panobinostat]		100	100	75 ± 4	IC50 ([2]; Homo sapiens, A2780, 96 h): 4.6 ± 1.8 nM; IC50 (HDAC6): 89 ± 12 nM; substrate preference B61 (HDAC1/HDAC3) vs B12 (HDAC6) (HDAC6; rat liver HDAC preparation): equipotent activity towards both substrates
CC(/C=C/C(=O)NO)=C\[C@@H](C)C(=O)c1ccc(N(C)C)cc1 [TSA, Trichostatin A]	23 ± 8	300	300	12 ± 1.2	IC50 (HDAC6; read-out: Liver extract B12 HDAC6 IC50): 20.7 ± 2.6 nM
